One series addresses T1, DUSP22/MKPX (Homo sapiens, UniProt Q9NRW4).
T1 construct: purchased Recation Biology Inc
T1 sequence (Q9NRW4 1-184): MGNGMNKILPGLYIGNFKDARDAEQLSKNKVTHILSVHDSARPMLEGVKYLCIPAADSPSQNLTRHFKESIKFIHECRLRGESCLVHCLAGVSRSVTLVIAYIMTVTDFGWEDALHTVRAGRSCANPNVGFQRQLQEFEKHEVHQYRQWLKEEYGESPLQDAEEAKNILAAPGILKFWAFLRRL
Put plainly: Phosphatase panel, DiFMUP fluorescence assay. The format is biochemical.

The nature of series [1]: Weight loss in ad lib fed mice (about 50 grams), i.p. every other day. Type of series: in vivo, male Swiss Webster mice. The conditions noted are these: i.p. 10 mg/kg every other day, food ad lib. From the text: Food was provided ad lib.
By 27 days both sets of treated mice had lost about 10% of their starting body weight.

Series [2] addresses Tyrosine-protein phosphatase non-receptor type 11 (Homo sapiens, UniProt Q06124). Put plainly: Phosphatase panel, DiFMUP fluorescence assay. The format is biochemical.
The nature of series [3]: Weight gain in growing male mice (about 25 grams). Type of series: in vivo. The conditions noted are these: similar dosing regimen, FIG. 2. On the procedure:
In a second experiment, growing male mice, about 25 grams, were administered either compound following a similar dosing regimen. As in the previous experiment, both compounds affected weight gain.

The next series concerns stomach tissues. Briefly: Stomach RNA-sequencing, ENT-02 (MSI-1436) treatment and congruence with ENT-03 (Example 10). Type of series: in vivo, mice. On the procedure:
Samples of stomach tissues from the mice were analysed by RNA-sequencing on an Illumina platform.
To achieve these aims, data were subject to a quality control evaluation, differential expression and functional enrichment analyses, as well as a congruence analysis.
[…] At this threshold, differentially expressed genes were identified in all contrasts.
As mentioned previously, for statistical robustness, only those with an adjusted p-value <0.05 should be considered. […]
The amount of overlap is represented in FIGS. 28A-28D. For each comparison, the value in the plot represents the number of intersecting selected genes and the color represents the Jaccard index (the intersection over the union) for the two contrasts under consideration.
Scatter plots, upset plots, venn diagrams, hypergeometric tests and Spearman rank correlation tests were employed to assess the level of overlap as shown in FIGS. 15-27.

In a further series the target is T2, PTPN1/PTP1B (Homo sapiens, UniProt P18031).
T2 construct: The enzyme was the human truncated form (1-321), recombinantly produced in Escherichia coli; host or cells: Escherichia coli
T2 sequence (P18031 1-321): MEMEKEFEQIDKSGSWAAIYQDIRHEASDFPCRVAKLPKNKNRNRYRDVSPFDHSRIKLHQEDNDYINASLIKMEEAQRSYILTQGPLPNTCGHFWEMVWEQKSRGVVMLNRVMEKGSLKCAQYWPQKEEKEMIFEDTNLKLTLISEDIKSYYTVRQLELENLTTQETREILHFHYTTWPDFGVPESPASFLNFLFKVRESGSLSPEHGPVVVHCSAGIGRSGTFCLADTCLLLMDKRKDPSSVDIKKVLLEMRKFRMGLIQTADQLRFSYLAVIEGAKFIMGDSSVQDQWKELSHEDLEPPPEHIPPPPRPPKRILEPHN
Put plainly: PTP1B inhibition, fluorescence time-course, 10-dose IC50 (Example 2). Type of series: biochemical.

The nature of series [4]: Weight loss, i.p. once weekly over 6 weeks (FIG. 1C). The format is in vivo, C57bl/6 male mice. The conditions noted are these: intraperitoneal once weekly over 6 weeks.
A short description of series [5]: Weight loss, 3, 5, 10 mg/kg (FIG. 14). The conditions noted are these: intraperitoneal 3, 5, 10 mg/kg once weekly over 2 weeks. The format is in vivo, C57bl/6 male mice.
Series [6] relates to stomach, jejunum and ileum. Put plainly: GI tract transcriptome (RNAseq) after oral ENT-03, young vs aged mice. Type of series: in vivo, C57bl/6 male mice. As for the experimental part: Young (20 week) and aged (80 week) C57bl/6 male mice were administered ENT-03 (40 mg/kg) or vehicle (water) by oral gavage daily for 2 weeks. Over this period of time clinical observations were unremarkable as were the gross and microscopic examinations of the GI tract. The transcriptomes of the stomach, jejunum and ileum were analyzed by RNAseq technology. Comparative analyses of the transcripts from untreated animals identified numerous transcripts that differed in abundance between the corresponding tissues from old and young individuals. […] Thus, within these three distinct regions of the mouse GI tract, ageing is associated with changes in the transcriptome.
Statistical analysis of RNA-sequencing data was performed using R programming language. Transcripts with less than one read count per million reads in all samples of each tissue were removed. The raw count data for the samples were then normalised using trimmed mean of M-values normalisation and transformed with voom (Law et al., 2014), resulting in log 2-transformed counts per million with associated precision weights. […] Statistical comparisons were performed using linear modelling, as implemented in the Bioconductor package limma (Ritchie et al., 2015). Significance values (p-values) were adjusted for multiple testing using Benjamini-Hochberg procedure (Benjamini et al., 1995). For each comparison (e.g. group A versus group B), a positive log 2-transformed fold change indicates up-regulation in group A relative to group B.
To investigate the overlap between contrasts, the number of overlapping differentially expressed genes (defined using adjusted p-value <0.05) between all pairwise combinations of the comparisons performed were counted. For each comparison, the Jaccard index, defined as the intersection over the union, measures the similarity between the two contrasts under consideration. The p-value was calculated using a hypergeometric test taking into account the universe size under the assumption that the contrasts and genes are independent.

Where [7] appears, read: Table 5B, read-out: Compound IC50 (M) DUSP22/MKPX.
[8] abbreviates: Table 19A, read-out: inhibitory activity DUSP22/MKPXPT.

The values that follow come from patent US20250228873A1, “C25 R AND S ISOMERS OF AMINOSTEROLS AND METHODS OF MAKING AND USING THE SAME” (Enterin, Inc., priority 2022, published 2025).

Several values for one entry are separate records, joined by “and”; a condition that tells them apart may be missing. Equal entries are not always repeated. Where two headings read alike, the source gives them in different places.

Sequence of Tyrosine-protein phosphatase non-receptor type 11 (Q06124 247-517): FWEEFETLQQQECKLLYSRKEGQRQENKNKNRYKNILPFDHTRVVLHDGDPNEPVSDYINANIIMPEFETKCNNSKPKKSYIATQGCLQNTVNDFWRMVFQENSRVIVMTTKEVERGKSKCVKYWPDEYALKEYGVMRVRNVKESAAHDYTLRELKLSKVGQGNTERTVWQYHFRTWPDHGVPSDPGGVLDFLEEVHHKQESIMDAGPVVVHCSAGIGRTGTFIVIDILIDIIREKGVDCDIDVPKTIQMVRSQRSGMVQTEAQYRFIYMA

Take `CC(CCC[C@@H](C)[C@H]1CCC2C3C(CC(O)[C@@]21C)[C@@]1(C)CC[C@H](NCCCNCCCCN)C[C@@H]1C[C@H]3O)C(=O)O` (single isomer, unassigned) [ENT-05]: the IC50 on DUSP22/MKPX (Table 18A, read-out: inhibitory activity DUSP22/MKPX) is over 0.0001 M.
For `CC(C)[C@@H](CC[C@@H](C)[C@H]1CC[C@H]2[C@@H]3[C@H](O)C[C@H]4C[C@@H](NCCCNCCCCNCCCN)CC[C@]4(C)[C@H]3CC[C@]12C)OS(=O)(=O)O` (single isomer, unassigned) [ENT-02 (MSI-1436), trodusquemine], in series [1], the “effect on weight” value is on record as “more severe decline”. Besides, the IC50 in series [2] was 375 nM; at DUSP22/MKPX (setting [7]), 6.39e-07 M. In addition, in [3], the “effect on growth / weight gain” value was “suppressed growth as well as having induced consumption of body fat”. For the same molecule, the “overlap of genes downregulated in aged mice with genes up-regulated by treatment in old mice” value with stomach tissues (hypergeometric P<0.0001) is “overlapped significantly”. Besides, in the series with stomach tissues (stomach, congruence analysis), the “overlap of genes down-regulated in ageing and up-regulated in treatment with those of ENT-03” value is given as “did not overlap with those affected by ENT-03”. The “Slope (signal/min)” value on PTPN1/PTP1B (Conc 1.00E−04 M) is recorded as −68 signal/min; on PTPN1/PTP1B (Conc 1.11E−05 M) it was 292 signal/min; on PTPN1/PTP1B (Conc 1.23E−06 M), 37260 signal/min; at PTPN1/PTP1B (Conc 1.37E−07 M), 40137 signal/min; on PTPN1/PTP1B (Conc 1.52E−08 M), 44021 signal/min; at PTPN1/PTP1B (Conc 3.33E−05 M) it was −440 signal/min. Besides, the “Slope (signal/min)” value on PTPN1/PTP1B (Conc 3.70E−06 M) came out at 16431 signal/min; on PTPN1/PTP1B (Conc 4.12E−07 M) it was 39959 signal/min; at PTPN1/PTP1B (Conc 4.57E−08 M) it was 42717 signal/min; at PTPN1/PTP1B (Conc 5.08E−09 M), 43513 signal/min. Besides, the HILLSLOPE at PTPN1/PTP1B (Table 5A) is −2.19.
On to `CC(CCC[C@@H](C)[C@H]1CCC2C3C(CC[C@@]21C)[C@@]1(C)CC[C@H](NCCCNCCCCNCCCN)C[C@@H]1C[C@H]3O)C(=O)O` (single isomer, unassigned) [ENT-03], for which the “clinical appearance other than weight loss” value in series [4] and in series [5] was “appeared clinically normal” in each case. The entries for the “effect on weight” value in series [4], in [1] and in series [5] were “dose dependent weight loss”, “weight loss with kinetics similar to that seen following administration of ENT-02” and “dose dependent weight loss”, respectively. Also, in series [1], the “gradual recovery to the starting weight by” value is about 45 days. In addition, the “nadir of weight decrease” value in [1] was about 16 days. The “starting body weight lost by 27 days” value in series [1] is listed as “about 10%”. In addition, the IC50 in series [2] stood at 5000 nM; at DUSP22/MKPX (setting [7]), 1.38e-06 M; at DUSP22/MKPX (setting [8]) it was 1.38e-06 M. In addition, the “effect on growth / weight gain” value in [3] is “continued normal growth”. Besides, the “clinical observations, gross and microscopic examinations of the GI tract” value in [6] (40 mg/kg oral gavage daily for 2 weeks, young and aged mice) was “unremarkable”. Moreover, the “genes differentially expressed on treatment” value in series [6] (ileum, aged mice) is 1162 genes; in series [6] (ileum, young mice), 80 genes; in series [6] (jejunum, aged mice), 382 genes; in series [6] (jejunum, young mice), 42 genes. In [6] (jejunum and ileum, both young and aged mice), the “genes whose expression changed significantly in response to exposure” value is given as “no more than 2 genes”. The “genes down-regulated in ageing that are up-regulated by treatment in old mice” value in [6] (stomach) is 37 genes and 36 genes. The “genes differentially expressed on treatment (p(adj)<0.05)” value in series [6] (stomach, aged mice) is recorded as 63 genes; in [6] (stomach, young mice (20 weeks)) it was 13 genes. For the same molecule, the “ageing genes further down regulated in the ageing direction by treatment” value in series [6] (stomach, young mice) is given as 12 genes.
Consider `CC(CCC[C@@H](C)[C@H]1CCC2C3C(CC[C@@]21C)[C@@]1(C)CC[C@H](NCCCNCCCCN)C[C@@H]1C[C@H]3O)C(=O)O` (single isomer, unassigned) [ENT-06], for which the IC50 on DUSP22/MKPX (setting [8]) was 2.09e-06 M.
